One data set has as its target T1, human OCTN1 (Homo sapiens, UniProt Q9H015).
T1 construct: made in house; host or cells: E. coli Rosetta(DE3)pLysS
T1 sequence (Q9H015 1-551): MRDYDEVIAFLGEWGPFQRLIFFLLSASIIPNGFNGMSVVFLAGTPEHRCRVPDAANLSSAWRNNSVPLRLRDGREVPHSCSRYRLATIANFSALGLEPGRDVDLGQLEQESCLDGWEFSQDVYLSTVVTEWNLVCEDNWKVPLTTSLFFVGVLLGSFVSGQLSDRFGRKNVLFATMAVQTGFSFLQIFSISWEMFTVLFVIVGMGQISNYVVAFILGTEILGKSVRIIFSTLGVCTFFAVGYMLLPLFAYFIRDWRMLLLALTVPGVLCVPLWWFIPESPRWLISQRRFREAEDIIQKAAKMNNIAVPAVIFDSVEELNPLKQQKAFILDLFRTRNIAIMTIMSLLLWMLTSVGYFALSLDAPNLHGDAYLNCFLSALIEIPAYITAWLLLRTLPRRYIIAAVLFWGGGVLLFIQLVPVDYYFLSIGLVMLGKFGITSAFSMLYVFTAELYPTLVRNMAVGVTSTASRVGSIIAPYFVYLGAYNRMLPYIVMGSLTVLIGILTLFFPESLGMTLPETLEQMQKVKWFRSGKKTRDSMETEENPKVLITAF
It counts as biochemical. The note with it: 60 min; for IC50: OCTN1 WT proteoliposomes, 0.1 mM [14C]-TEA, read-out: IC50 (µM) on [14C]-TEA uptake. Here is the method:
After desalting, the protein was reconstituted in liposomes. The composition of the initial mixture used for reconstitution was as follows: 50 µg of protein (or desalt buffer in liposomes without the incorporated protein), 80 µL of 10% C12E8, 120 µL of 10% egg yolk phospholipids with 25% cholesterol in the form of sonicated liposomes, 16 mM ATP disodium salt, and 5 mM BisTris/HCl (pH 7.5) in a final volume of 700 µL. The purified OCTN1 (WT or C-less mutant) was inserted in the liposomal membrane using the batch-wise technique. This procedure used 0.5 g of Amberlite XAD-4 to remove the detergent from mixed micelles consisting of proteins, phospholipids and detergent at 23 °C for 40 min at 1200 rpm, as previously described.
(§1) Proteoliposomes and liposomes (600 μL) were applied onto a Sephadex G-75 (Merck Life Science, Milan, Italy) column (0.7 cm diameter × 15 cm height) pre-equilibrated with 5 mM BIS-Tris/HCl (pH 8.0) and eluted with 600 μL of the same buffer. Samples of 100 μL each were prepared from the 600 μL pool. The transport was initiated by [^14C]-TEA or [^3H]-Ach at the concentration of 0.1 mM to the proteoliposome samples and stopped after 60 min according to the stop-inhibitor method. In the blank samples, the inhibitor (1 mM Hemicholinium-3) was added at time zero. After the transport time, each sample was applied onto a Sephadex G-75 column (0.6 cm diameter × 8 cm height) and pre-equilibrated with 50 mM NaCl to remove the radioactivity not taken up. Proteoliposomes were eluted with 50 mM NaCl (1 mL), added to 3 mL Pico-Fluor Plus, vortexed, and counted. The radioactivity in the blank samples was used to subtract background radioactivity from the protein-associated one.
All experimental data were derived from the mean of three independent experiments, and results were expressed as means ± SD. IC50 values were derived from data fitting the IC50 equation using Grafit v 5.0.13 software (Erithacus Software (v 5.0.13), East Grinstead, UK).

In another data set the target is T2, Cys-less OCTN1 (Homo sapiens, UniProt Q9H015, C113A/C136A/C236A/C270A/C374A/C50A/C81A).
T2 construct: made in house; host or cells: E. coli Rosetta(DE3)pLysS
T2 sequence (Q9H015 1-551 C50A/C81A/C113A/C136A/C236A/C270A/C374A): T1 sequence (Q9H015 1-551) with C50A, C81A, C113A, C136A, C236A, C270A, C374A
The data set is described as follows: [14C]-TEA uptake by Cys-less OCTN1 mutant reconstituted in proteoliposomes. The class given is biochemical. The note with it: 100 µM metal (250 µM CrCl2), 0.1 mM [14C]-TEA, 60 min. Here is the method: The over-expression of OCTN1 wild type (WT) and C-less mutant proteins, as previously described in [17], has been performed in E. coli Rosetta(DE3)pLysS, as described in [60, 61].
After desalting, the protein was reconstituted in liposomes. The composition of the initial mixture used for reconstitution was as follows: 50 µg of protein (or desalt buffer in liposomes without the incorporated protein), 80 µL of 10% C12E8, 120 µL of 10% egg yolk phospholipids with 25% cholesterol in the form of sonicated liposomes, 16 mM ATP disodium salt, and 5 mM BisTris/HCl (pH 7.5) in a final volume of 700 µL. The purified OCTN1 (WT or C-less mutant) was inserted in the liposomal membrane using the batch-wise technique. […]
as §1, with “Samples of 100 μL each were prepared from the 600 μL pool. The transport was initiated by [^14C]-TEA or [^3H]-Ach at the concentration of 0.1 mM to the proteoliposome samples and stopped after 60 min according to the stop-inhibitor method. In the blank samples, the inhibitor (1 mM Hemicholinium-3) was added at time zero.” left out

For data set [1] the following is noted: according to ATSDR; ref https://www.atsdr.cdc.gov/toxprofiles; cited from earlier work.

Consider eight compounds from article PMC11642070, “OCTN1 (SLC22A4) as a Target of Heavy Metals: Its Possible Role in Microplastic Threats” (International Journal of Molecular Sciences, 2024).

Substitutions are numbered along the chain they refer to.

As to `[Cl][Cr][Cl]` [CrCl2, Chromium (II) chloride], the “Effect of DTE and cysteine on the inhibition of [14C]-TEA transport by heavy metals” value at human OCTN1 (100 µM metal (250 µM CrCl2), 5 mM DTE or Cys) is given as “only exception”. On human OCTN1, the IC50 turned out to be 170 ± 15 µM. In addition, the “Inhibition of [14C]-TEA transport by Cys-less OCTN1” value on Cys-less OCTN1 was “only exception”.

`[Zn]` [Zinc]: in data set [1], the “Level of Toxicity” value is “+”.

On to `[Cd]` [Cadmium], for which the “Level of Toxicity” value in data set [1] is recorded as “+++”.

`[Cl-].[Cl-].[Zn+2]` [ZnCl2, Zinc chloride]: the IC50 at human OCTN1 came out at 57 ± 17 µM.

For the compound `O=[N+]([O-])[O-].O=[N+]([O-])[O-].[Pb+2]` [Pb(NO3)2, Lead nitrate], the IC50 on human OCTN1 amounted to 90 ± 19 µM.

For the compound `[Cr]` [Chromium], the “Level of Toxicity” value in data set [1] was “+++”.

Consider `[Cl][Cd][Cl]` [CdCl2, Cadmium chloride], for which, at human OCTN1, the IC50 stood at 56 ± 4 µM.

As for `[Cl][Hg][Cl]` [HgCl2, Mercury (II) chloride], the IC50 at human OCTN1 is 121 ± 7 µM.
